For 1 cell line, relative viability results are on record in the supplement of paper PMC10307832.

What all share (test): relative viability (nuclei count vs DMSO), 5 days (fraction); higher = more cells survive
Compound in experiment [1]: C[C@]1(c2nc3c(C(N)=O)cccc3[nH]2)CCCN1 [Veliparib] + CCNC(=O)c1noc(-c2cc(C(C)C)c(O)cc2O)c1-c1ccc(CN2CCOCC2)cc1 [Luminespib] (partner 0.01 µM)
A digest of the protocol: (§1)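 Lung cancer cell lines, seeded in 1536-well plates, were treated the following day by pin tool with a single drug or with five library-drug doses (not always all listed) in √10 steps on top of a fixed anchor-drug dose. Cells were fixed and nuclei stained in one step after 5 days, and nuclei were counted. Relative viability is the nuclei count for treated wells divided by that for vehicle wells, reported as medians of duplicate plates.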

Compound in experiment [2]: COC1=CC=C(C=C1)CN2C=CC3=C2C=C(C=C3)C(=O)NO + CC(=O)Nc1cccc(-n2c(=O)n(C3CC3)c(=O)c3c(Nc4ccc(I)cc4F)n(C)c(=O)c(C)c32)c1 [Trametinib] (partner 0.02 µM)
An outline of the steps: as §1

Compound in experiment [3]: C[C@]1(c2nc3c(C(N)=O)cccc3[nH]2)CCCN1 [Veliparib] + Nc1nc2[nH]cc(CCc3ccc(C(=O)N[C@@H](CCC(=O)O)C(=O)O)cc3)c2c(=O)[nH]1 [Pemetrexed] (partner 0.2 µM)
A digest of the protocol:
as §1

Compound in experiment [4]: C[C@]1(c2nc3c(C(N)=O)cccc3[nH]2)CCCN1 [Veliparib] + CC(C)C[C@H](NC(=O)[C@H](Cc1ccccc1)NC(=O)c1cnccn1)B(O)O [Bortezomib] (partner 0.002 µM)
A digest of the protocol: as §1

For SW 1573, the relative viability in experiment [1] (first compound 0.02 µM) turned out to be 0.169; in experiment [1] (first compound 0.06325 µM) it was 0.204; in experiment [1] (first compound 0.2 µM), 0.169; in experiment [1] (first compound 0.6325 µM), 0.254; in experiment [1] (first compound 2 µM) it was 0.214; in experiment [2] (first compound 0.253 µM), 0.539. Moreover, the relative viability turned out to be 0.678 in experiment [2] (first compound 0.8 µM); 0.562 in experiment [2] (first compound 2.53 µM); 0.37 in experiment [2] (first compound 8 µM); 0.721 in experiment [3] (first compound 0.06325 µM); 0.758 in experiment [3] (first compound 0.2 µM); 0.768 in experiment [3] (first compound 0.6325 µM). Besides, the relative viability is 0.86 in experiment [3] (first compound 2 µM); 0.951 in experiment [4] (first compound 0.02 µM); 0.982 in experiment [4] (first compound 0.06325 µM); 1.07 in experiment [4] (first compound 0.2 µM); 0.862 in experiment [4] (first compound 0.6325 µM); 1.06 in experiment [4] (first compound 2 µM).
